Data set [1] is described as follows: Compound was evaluated for ocular toxicity assessed after oral dosing at 40 mg/kg b.i.d. in male Wistar rat; No. In kind it is organism-based, Eye. The note with it: in vivo. Also noted: dose 40 mg/kg, route oral.
The species entered for a further data set is Rattus norvegicus. Kind of data set: Anti-angiogenic activity as inhibition of microvessel growth in rat aortic ring cultured in a fibrin clot. It is filed as functional. The following applies: Aorta.
For data set [2], the system named is 3LL cell line. Kind of data set: In vivo anti-tumor and anti-metastatic activity was measured after oral dosing 15 mg/kg b.i.d. to B6D2F1 mice bearing metastatic 3LL Lewis lung tumor. In kind it is functional. The note with it: Mus musculus.
A short description of data set [3]: Compound was evaluated for ocular toxicity assessed after oral dosing at 40 mg/kg b.i.d. in male Wistar rat; Yes. It is filed as organism-based, Eye. Also noted: dose 40 mg/kg, route oral. The note with it: in vivo.
The nature of data set [4]: Compound was evaluated for ocular toxicity assessed after oral dosing at 40 mg/kg b.i.d. in male Wistar rat; Very weak. It is filed as organism-based, Eye. Also on record: dose 40 mg/kg, route oral. The note with it: in vivo.
In data set [5] the test system is 3LL cell line. Kind of data set: In vivo anti-tumor and anti-metastatic activity was measured after oral dosing b.i.d. to B6D2F1 mice bearing metastatic 3LL Lewis lung tumor. It is filed as functional, Mus musculus.

Molecules are shown by their SMILES. Where only a bound is given, the exact number is not on record here.

Consider `Nc1nsc(-c2ccc(N3CCN(c4cccc(C(F)(F)F)c4)CC3)nn2)n1`, for which, in data set [1], the Eye toxicity result is “No toxicity”. The IC50 in the data set filed under Rattus norvegicus was 20 nM.

Take `FC(F)(F)c1cccc(N2CCN(C3CCN(c4ccc(-c5ncns5)nn4)CC3)CC2)c1`: in data set [1], the Eye toxicity result is listed as “No toxicity”. Further, inhibition in the data set listed under Rattus norvegicus was half-maximal at 0.3 nM (IC50). In the data set on 3LL cell line [2], this compound yielded an inhibition in vivo at 15 mg/kg of 54%.

For the compound `Cc1nsc(-c2ccc(N3CCN(c4cccc(C(F)(F)F)c4)CC3)cc2)n1`, the Eye toxicity result in data set [1] is on record as “No toxicity”. Moreover, the midpoint of inhibition in the data set listed under Rattus norvegicus, the IC50, lay at 10 nM.

Turning to `Cc1nsc(-c2ccc(N3CCN(c4cccc(C(F)(F)F)c4)CC3)nc2)n1`, the Eye toxicity entry in data set [1] is “No toxicity”. In the data set filed under Rattus norvegicus, this compound registered an IC50 of 5 nM.

In the data set filed under Rattus norvegicus, `Cc1nsc(-c2ccc(N3CCN(c4cccc(C#N)c4)CC3)nn2)n1` gave an IC50 of 3 nM.

On to `CN(C)c1nsc(-c2ccc(N3CCN(c4ccccc4)CC3)nn2)n1`, for which, in data set [1], the Eye toxicity result is reported as “No toxicity”. The compound further came in with an IC50 in the data set listed under Rattus norvegicus of 0.1 nM. This compound also returned an inhibition in vivo at 15 mg/kg in the data set on 3LL cell line [2] of 13%.

Compound `Cc1nsc(-c2ccc(N3CCN(c4cccc(N)c4)CC3)nn2)n1` gave an IC50 in the data set filed under Rattus norvegicus of over 100 nM.

In turn, `Cc1nsc(-c2ccc(N3CCN(c4ccc(C(F)(F)F)cc4)CC3)nn2)n1` had an IC50 in the data set filed under Rattus norvegicus of 12 nM.

`Cc1nsc(-c2ccc(N3CCN(c4cccc(F)c4)CC3)nn2)n1` returned an IC50 in the data set filed under Rattus norvegicus of 6 nM.

`Cc1nsc(-c2ccc(N3CCN(c4cccc(Cl)c4)CC3)nn2)n1`: in the data set listed under Rattus norvegicus, the IC50 was determined as 0.6 nM. The Eye toxicity result in data set [3] is recorded as “Yes”.

Turning to `CN(C)c1nsc(-c2ccc(N3CCC(N4CCN(c5cccc(C(F)(F)F)c5)CC4)CC3)nn2)n1`, the IC50 in the data set filed under Rattus norvegicus was under 1 nM. The inhibition in vivo at 15 mg/kg in the data set on 3LL cell line [2] amounted to 25%. The Eye toxicity entry in data set [4] is given as “Very weak”.

For `COc1cccc(N2CCN(c3ccc(-c4nc(C)ns4)nn3)CC2)c1`, half-maximal inhibition in the data set listed under Rattus norvegicus (IC50) was put at 7 nM.

On to `FC(F)(F)c1cccc(N2CCN(c3ccc(-c4ncns4)nn3)CC2)c1`, for which the Eye toxicity entry in data set [1] was “No toxicity”. Also, the IC50 in the data set filed under Rattus norvegicus was determined as 70 nM.

In the data set listed under Rattus norvegicus, `Cc1nsc(-c2ccnc(N3CCN(c4cccc(C(F)(F)F)c4)CC3)n2)n1` came in with an IC50 of over 100 nM.

For the compound `Cc1nsc(-c2ccc(N3CCN(c4cccc([N+](=O)[O-])c4)CC3)nn2)n1`, it took 3 nM to reach half-maximal inhibition in the data set listed under Rattus norvegicus (IC50). Besides, in data set [3], the Eye toxicity result is “Yes”.

`FC(F)(F)c1cccc(NC2CCN(c3ccc(-c4ncns4)nn3)CC2)c1`: in data set [1], the Eye toxicity result is listed as “No toxicity”. In the data set filed under Rattus norvegicus, this compound came in with an IC50 of 7 nM. In addition, the inhibition in vivo at 15 mg/kg with 3LL cell line [2] was 42%.

With `Cc1nsc(-c2nccc(N3CCN(c4cccc(C(F)(F)F)c4)CC3)n2)n1`, the Eye toxicity entry in data set [1] is on record as “No toxicity”. This compound also displayed an IC50 in the data set listed under Rattus norvegicus of over 100 nM.

As for `CN(C)c1nsc(-c2ccc(N3CCN(c4cccc(C(F)(F)F)c4)CC3)nn2)n1`, the Eye toxicity result in data set [1] was “No toxicity”. For the same compound, 15 mg/kg produced 39% inhibition in vivo in the data set on 3LL cell line [2].

For the compound `CNc1nsc(-c2ccc(N3CCN(c4cccc(C(F)(F)F)c4)CC3)nn2)n1`, the Eye toxicity result in data set [1] is “No toxicity”. Moreover, the midpoint of inhibition in the data set listed under Rattus norvegicus, the IC50, lay at 3 nM.

For the compound `Cc1nsc(-c2ccc(N3CCN(c4ccccc4C(F)(F)F)CC3)nn2)n1`, inhibition in the data set listed under Rattus norvegicus was half-maximal at 0.2 nM (IC50). Further, in data set [3], the Eye toxicity result is recorded as “Yes”.

For `Cc1nsc(-c2ccc(N3CCN(c4cccc(C(F)(F)F)c4)CC3)nn2)n1`, the IC50 in the data set listed under Rattus norvegicus came out at 0.3 nM. The Eye toxicity entry in data set [3] is listed as “Yes”.

On to `CCc1nsc(-c2ccc(N3CCN(c4cccc(C(F)(F)F)c4)CC3)nn2)n1`, for which the Eye toxicity result in data set [1] is recorded as “No toxicity”. Also, the IC50 in the data set filed under Rattus norvegicus turned out to be 8 nM.

In the data set listed under Rattus norvegicus, `Cc1nsc(-c2ccc(N3CCN(c4cc(C(F)(F)F)cc(C(F)(F)F)c4)CC3)nn2)n1` displayed an IC50 of under 0.1 nM. In addition, in data set [3], the Eye toxicity entry is listed as “Yes”.

Consider `Cc1nsc(-c2ccc(N3CCN(c4cc(Cl)cc(Cl)c4)CC3)nn2)n1`, for which the IC50 in the data set listed under Rattus norvegicus is under 0.1 nM. For the same compound, the Eye toxicity result in data set [3] is recorded as “Yes”.

Turning to `FC(F)(F)c1cc(N2CCN(c3ccc(-c4ncns4)nn3)CC2)cc(C(F)(F)F)c1`, the Eye toxicity entry in data set [1] is recorded as “No toxicity”. The compound further had an Inhibition with 3LL cell line [5] of 24%. Also, in the data set listed under Rattus norvegicus, the IC50 is under 1 nM.

Values taken from ChEMBL document CHEMBL1135068, “Synthesis and anti-angiogenic activity of 6-(1,2,4-thiadiazol-5-yl)-3-amino pyridazine derivatives” (Bioorg Med Chem Lett, 2002).
